ChEMBL document CHEMBL1127385, “Synthesis and diuretic activity of alkyl- and arylguanidine analogs of N,N'-dicyclohexyl-4-morpholinecarboxamidine in rats and dogs” (J Med Chem, 1994)
“And” between values parts separate entries of the source, which are not always exact repeats. Equal values may be shown once.

Assays:
[1] = tested on: Rattus norvegicus; experiment: Ratio of Total electrolytic excretion of sodium and potassium in urine of rats after peroral administration of 341 uM/Kg of drug; assay type: ADME, organism-based; details: in vivo, po
[2] = tested on: Rattus norvegicus; experiment: Ratio of Total electrolytic excretion of sodium and potassium in urine of rats after intravenous administration of 9.09 uM/Kg of drug; assay type: ADME, organism-based; details: in vivo
[3] = organism: Canis familiaris; experiment: Systemic cardio vascular Hemodynamics of heart rate was measured in Beagle dogs after giving the dose of MNX; assay type: functional, Canis lupus familiaris
[4] = tested on: Canis familiaris; experiment: Tested for the diuretic activity by measuring the urinary volume after peroral administering 68.1 uM/Kg of drug in dogs; assay type: ADME, organism-based, Canis lupus familiaris, Urine; details: dog, in vivo, po
[5] = organism: Canis familiaris; experiment: Tissue vascular resistance of large intestine was measured in Beagle dogs before treatment; assay type: functional, Canis lupus familiaris
[6] = organism: Canis familiaris; experiment: Systemic cardio vascular Hemodynamics of stroke index was measured in Beagle dogs in pretreatment control group; assay type: functional, Canis lupus familiaris, Heart
[7] = tested on: Rattus norvegicus; experiment: Ratio of Total electrolytic excretion of sodium and potassium in urine of rats after peroral administration of 34.1 uM/Kg of drug; assay type: ADME, organism-based; details: in vivo, po
[8] = tested on: Rattus norvegicus; experiment: Tested for the diuretic activity by measuring the urinary volume after peroral administering 34.1 uM/Kg of drug in rats; assay type: ADME, organism-based, Urine; details: in vivo, po
[9] = organism: Canis familiaris; experiment: Systemic cardio vascular Hemodynamics of cardiac index was measured in Beagle dogs in pretreatment control group; assay type: functional, Canis lupus familiaris, Heart
[10] = tested on: Rattus norvegicus; experiment: Ratio of Total electrolytic excretion of sodium and potassium in urine of rats after peroral administration of 50.8 uM/Kg of drug; assay type: ADME, organism-based; details: in vivo, po
[11] = tested on: Canis familiaris; experiment: Tested for the diuretic activity by measuring the urinary volume after peroral administering 34.1 uM/Kg of drug in dogs; details: dog, in vivo, po
[12] = tested on: Canis familiaris; experiment: Total electrolytic excretion of chlorine in urine of dogs after intravenous administration of 3.03 uM/Kg of drug; assay type: ADME, organism-based, Canis lupus familiaris; details: dog, in vivo
[13] = organism: Canis familiaris; experiment: Tissue vascular resistance of pancreas was measured in Beagle dogs before treatment; assay type: functional, Canis lupus familiaris
[14] = organism: Canis familiaris; experiment: Systemic cardio vascular Hemodynamics of total peripheral resistance was measured in Beagle dogs after giving the dose of MNX; assay type: functional, Canis lupus familiaris, Heart
[15] = tested on: Canis familiaris; experiment: Tested for the diuretic activity by measuring the urinary volume after peroral administering 102 uM/Kg of drug in dogs; assay type: ADME, organism-based, Canis lupus familiaris, Urine; details: dog, in vivo, po
[16] = tested on: Canis familiaris; experiment: Total electrolytic excretion of sodium in urine of dogs after intravenous administration of 3.03 uM/Kg of drug; assay type: ADME, organism-based, Canis lupus familiaris; details: dog, in vivo
[17] = tested on: Rattus norvegicus; experiment: Total electrolytic excretion of chlorine in urine of rats after peroral administration of 341 uM/Kg of drug; assay type: ADME, organism-based; details: in vivo, po
[18] = tested on: Canis familiaris; experiment: Total electrolytic excretion of chlorine in urine of dogs after peroral administration of 102 uM/Kg of drug; assay type: ADME, organism-based, Canis lupus familiaris; details: dog, in vivo, po
[19] = tested on: Canis familiaris; experiment: Tested for the diuretic activity by measuring the urinary volume after intravenous administering 34.1 uM/Kg of drug in dogs; assay type: ADME, organism-based, Canis lupus familiaris, Urine; details: dog, in vivo
[20] = tested on: Canis familiaris; experiment: Total electrolytic excretion of sodium in urine of dogs after peroral administration of 34.1 uM/Kg of drug; assay type: ADME, organism-based, Canis lupus familiaris; details: dog, in vivo, po
[21] = organism: Canis familiaris; experiment: Tissue vascular resistance of left ventricle was measured in Beagle dogs after giving the dose of MNX; assay type: functional, Canis lupus familiaris, Heart left ventricle
[22] = organism: Canis familiaris; experiment: Tissue vascular resistance of right atrium was measured in Beagle dogs before treatment; assay type: functional, Canis lupus familiaris, Cardiac atrium
[23] = organism: Canis familiaris; experiment: Systemic cardio vascular Hemodynamics of mean arterial pressure was measured in Beagle dogs after giving the dose of MNX; assay type: functional, Canis lupus familiaris, Heart
[24] = tested on: Canis familiaris; experiment: Total electrolytic excretion of sodium in urine of dogs after intravenous administration of 34.1 uM/Kg of drug; assay type: ADME, organism-based, Canis lupus familiaris; details: dog, in vivo
[25] = organism: Canis familiaris; experiment: Systemic cardio vascular Hemodynamics of stroke index was measured in Beagle dogs after giving the dose of MNX plus the drug; assay type: functional, Canis lupus familiaris, Heart
[26] = organism: Canis familiaris; experiment: Systemic cardio vascular Hemodynamics of total peripheral resistance was measured in Beagle dogs after giving the dose of MNX plus the drug; assay type: functional, Canis lupus familiaris, Heart
[27] = tested on: Canis familiaris; experiment: Total electrolytic excretion of chlorine in urine of dogs after intravenous administration of 34.1 uM/Kg of drug; assay type: ADME, organism-based, Canis lupus familiaris; details: dog, in vivo
[28] = tested on: Canis familiaris; experiment: Total electrolytic excretion of potassium in urine of dogs after intravenous administration of 34.1 uM/Kg of drug; assay type: ADME, organism-based, Canis lupus familiaris; details: dog, in vivo
[29] = tested on: Canis familiaris; experiment: Total electrolytic excretion of chlorine in urine of dogs after peroral administration of 34.1 uM/Kg of drug; assay type: ADME, organism-based, Canis lupus familiaris; details: dog, in vivo, po
[30] = tested on: Rattus norvegicus; experiment: Total electrolytic excretion of potassium in urine of rats after peroral administration of 50.8 uM/Kg of drug; assay type: ADME, organism-based; details: in vivo, po
[31] = tested on: Rattus norvegicus; experiment: Total electrolytic excretion of sodium in urine of rats after peroral administration of 102 uM/Kg of drug; assay type: ADME, organism-based; details: in vivo, po
[32] = organism: Canis familiaris; experiment: Tissue vascular resistance of pancreas was measured in Beagle dogs after giving the dose of MNX; assay type: functional, Canis lupus familiaris
[33] = organism: Canis familiaris; experiment: Systemic cardio vascular Hemodynamics of stroke index was measured in Beagle dogs after giving the dose of MNX; assay type: functional, Canis lupus familiaris, Heart
[34] = tested on: Canis familiaris; experiment: Total electrolytic excretion of sodium in urine of dogs after intravenous administration of 30.3 uM/Kg of drug; assay type: ADME, organism-based, Canis lupus familiaris; details: dog, in vivo
[35] = tested on: Canis familiaris; experiment: Total electrolytic excretion of potassium in urine of dogs after intravenous administration of 3.03 uM/Kg of drug; assay type: ADME, organism-based, Canis lupus familiaris; details: dog, in vivo
[36] = tested on: Rattus norvegicus; experiment: Total electrolytic excretion of potassium in urine of rats after peroral administration of 341 uM/Kg of drug; assay type: ADME, organism-based; details: in vivo, po
[37] = tested on: Canis familiaris; experiment: Total electrolytic excretion of sodium in urine of dogs after peroral administration of 68.1 uM/Kg of drug; assay type: ADME, organism-based, Canis lupus familiaris; details: dog, in vivo, po
[38] = organism: Canis familiaris; experiment: Tissue vascular resistance of large intestine was measured in Beagle dogs after giving the dose of MNX; assay type: functional, Canis lupus familiaris
[39] = tested on: Canis familiaris; experiment: Tested for the diuretic activity by measuring the urinary volume after intravenous administering 3.03 uM/Kg of drug in dogs; assay type: ADME, organism-based, Canis lupus familiaris, Urine; details: dog, in vivo
[40] = tested on: Canis familiaris; experiment: Total electrolytic excretion of chlorine in urine of dogs after peroral administration of 50.8 uM/Kg of drug; assay type: ADME, organism-based, Canis lupus familiaris; details: dog, in vivo, po
[41] = tested on: Canis familiaris; experiment: Tested for the diuretic activity by measuring the urinary volume after peroral administering 50.8 uM/Kg of drug in dogs; assay type: ADME, organism-based, Canis lupus familiaris, Urine; details: dog, in vivo, po
[42] = organism: Canis familiaris; experiment: Tissue vascular resistance of left ventricle was measured in Beagle dogs before treatment after giving the dose of MNX plus the drug; assay type: functional, Canis lupus familiaris, Heart left ventricle
[43] = tested on: Rattus norvegicus; experiment: Ratio of Total electrolytic excretion of sodium and potassium in urine of rats after peroral administration of 68.1 uM/Kg of drug; assay type: ADME, organism-based; details: in vivo, po
[44] = tested on: Canis familiaris; experiment: Total electrolytic excretion of potassium in urine of dogs after intravenous administration of 9.09 uM/Kg of drug; assay type: ADME, organism-based, Canis lupus familiaris; details: dog, in vivo
[45] = organism: Canis familiaris; experiment: Systemic cardio vascular Hemodynamics of mean arterial pressure was measured in Beagle dogs in pretreatment control group; assay type: functional, Canis lupus familiaris, Heart
[46] = tested on: Canis familiaris; experiment: Total electrolytic excretion of chlorine in urine of dogs after intravenous administration of 9.09 uM/Kg of drug; assay type: ADME, organism-based, Canis lupus familiaris; details: dog, in vivo
[47] = tested on: Rattus norvegicus; experiment: Total electrolytic excretion of sodium in urine of rats after peroral administration of 341 uM/Kg of drug; assay type: ADME, organism-based; details: in vivo, po
[48] = tested on: Rattus norvegicus; experiment: Total electrolytic excretion of potassium in urine of rats after peroral administration of 68.1 uM/Kg of drug; assay type: ADME, organism-based; details: in vivo, po
[49] = organism: Canis familiaris; experiment: Systemic cardio vascular Hemodynamics of total peripheral resistance was measured in Beagle dogs in pretreatment control group; assay type: functional, Canis lupus familiaris, Heart
[50] = organism: Canis familiaris; experiment: Systemic cardio vascular Hemodynamics of heart rate was measured in Beagle dogs in pretreatment control group; assay type: functional, Canis lupus familiaris
[51] = tested on: Rattus norvegicus; experiment: Ratio of Total electrolytic excretion of sodium and potassium in urine of rats after intravenous administration of 30.3 uM/Kg of drug; assay type: ADME, organism-based; details: in vivo
[52] = tested on: Canis familiaris; experiment: Total electrolytic excretion of sodium in urine of dogs after intravenous administration of 9.09 uM/Kg of drug; assay type: ADME, organism-based, Canis lupus familiaris; details: dog, in vivo
[53] = organism: Canis familiaris; experiment: Systemic cardio vascular Hemodynamics of heart rate was measured in Beagle dogs after giving the dose of MNX plus the drug; assay type: functional, Canis lupus familiaris
[54] = tested on: Rattus norvegicus; experiment: Ratio of Total electrolytic excretion of sodium and potassium in urine of rats after intravenous administration of 34.1 uM/Kg of drug; assay type: ADME, organism-based; details: in vivo

## C1CCC(N=C(NC2CCCCC2)N2CCOCC2)CC1
[1]
  Ratio: 5
[2]
  Ratio: 8.7
[3]
  HR: 138 beats min-1
[4]
  V: 91 mL
[5]
  TVR: 264 mmHg·min·g/mL
[6]
  SI: 2.2 ml beat-1 kg-1
[7]
  Ratio: 3.6 and 9.6 and 9.1
[8]
  V: 6.6 mL
[9]
  CI: 11.2 L/h/kg
[10]
  Ratio: 6.1
[11]
  V: 81 mL
[12]
  Excretion Cl-: 5.4 m equiv
[13]
  TVR: 118 mmHg·min·g/mL
[14]
  TPR: 0.3 mmHg·min·kg/mL
[15]
  V: 154 mL
[16]
  Excretion Na+: 8.1 m equiv
[17]
  Excretion Cl-: 1.64 m equiv
[18]
  Excretion Cl-: 19.6 m equiv
[19]
  V: 132 mL
[20]
  Excretion Na+: 9.9 m equiv
[21]
  TVR: 10 mmHg·min·g/mL
[22]
  TVR: 635 mmHg·min·g/mL
[23]
  MAP: 75 mmHg
[24]
  Excretion Na+: 18.6 m equiv
[25]
  SI: 1.1 ml beat-1 kg-1
[26]
  TPR: 0.91 mmHg·min·kg/mL
[27]
  Excretion Cl-: 16.4 m equiv
[28]
  Excretion K+: 1.3 m equiv
[29]
  Excretion Cl-: 9.4 m equiv
[30]
  Excretion K+: 1.9 m equiv
[31]
  Excretion Na+: 1.56 m equiv
[32]
  TVR: 43 mmHg·min·g/mL
[33]
  SI: 1.9 ml beat-1 kg-1
[34]
  Excretion Na+: 13.1 m equiv
[35]
  Excretion K+: 1.2 m equiv
[36]
  Excretion K+: 0.34 m equiv
[37]
  Excretion Na+: 14 m equiv
[38]
  TVR: 116 mmHg·min·g/mL
[39]
  V: 64 mL
[40]
  Excretion Cl-: 9.8 m equiv
[41]
  V: 62 mL
[42]
  TVR: 100 mmHg·min·g/mL
[43]
  Ratio: 8.6
[44]
  Excretion K+: 1.7 m equiv
[45]
  MAP: 101 mmHg
[46]
  Excretion Cl-: 9.6 m equiv
[47]
  Excretion Na+: 1.73 m equiv
[48]
  Excretion K+: 2 m equiv
[49]
  TPR: 0.56 mmHg·min·kg/mL
[50]
  HR: 87 beats min-1
[51]
  Ratio: 8.6
[52]
  Excretion Na+: 11.5 m equiv
[53]
  HR: 132 beats min-1
[54]
  Ratio: 17.4
